Experimental data: PMC10318456, “Selective inhibitors of the PSEN1–gamma-secretase complex” (The Journal of Biological Chemistry, 2023)

Columns and labels:
[1] = tested on: PSEN1 versus PSEN2 γ-secretase complexes; assay: Comparison of the four MEF cell lines: selectivity between γ-secretase complexes (IC50 ratios); format: cell-based, human; conditions: for selectivity for PSEN1 complexes versus PSEN2 complexes: IC50 ratios of PSEN1 versus PSEN2, MEF cell lines
Source text: (§1) Mouse embryonic fibroblast (MEF) cells deficient for the Psen and Aph1 genes (Psen1/2^−/−, Aph1ABC^−/−) were reconstituted with human PSEN1 or PSEN2 and with human APH1A or APH1B to generate four independent cell lines, each constitutively expressing exclusively one type of γ-secretase complex (Fig. S1A) ([19]). A human APP-C99-GFP reporter was introduced to enable the measurement of Aβ peptides in the conditioned media of the cells to monitor γ-secretase activity. The assay was established in a 96-well format.
GraphPad Prism 7 software was used to generate inhibition fitting curves (four-parameter logistic equation, nonlinear regression) and to determine IC50 and 95% CI values (Fig. S2). Selectivity values (IC50 ratios of PSEN1 versus PSEN2) above 10 are highlighted in red.
(§2) The number of plated cells and incubation times were determined in respect to linearity of Aβ peptide secretion, the dynamic range of Aβ peptide quantification in the medium, and sensitivity to dimethylsulfoxide (DMSO). […] MEF cells were plated in DMEM F12 supplemented with 10% FCS at 10,000 cells per well in 96-well clear bottom plates in the late afternoon and cultured for 16 h at 37 °C, 5% CO2. In the morning of the second day, the medium was replaced with 60 μl of DMEM/F12 supplemented with 2% FCS, and GSI or DMSO (controls) were added. Compounds were tested in serial dilutions with concentrations ranging from […] to 0.1 nM with 3-fold changes. The final concentration of DMSO in all wells was 0.2%. Plates were put in the incubator again at 37 °C, 5% CO2. After 8 h, the culture media were collected, and 30 μl was used to measure Aβ40 peptides. The cell viability was assessed using the CellTiter-Glo Luminescent assay (Promega) that measures ATP production. All screens were performed at one site, and reported IC50 values throughout the manuscript are from this site (Beerse) unless otherwise indicated.
GraphPad Prism 7 software (https://www.graphpad.com) was used to generate inhibition fitting curves (four-parameter logistic equation, nonlinear regression) and to determine IC50 values and 95% CI.

[2] = biological target: T1, PSEN1-APH1B γ-secretase complex (Homo sapiens, UniProt P49768); assay: Aβ40 secretion by MEF cell line expressing only PSEN1-APH1B γ-secretase (APP-C99-GFP reporter); format: cell-based; conditions: 8 h, Beerse site unless otherwise indicated, read-out: IC50, Aβ40 peptides
T1 construct: expressed in transfected cells; host or cells: Psen1/2 double KO/Aph1ABC triple KO MEFs, pMSCV retroviral PSEN-IRES-APH1
Source text: as §1
(§3) Conditional Psen1/2 double KO mice were crossed with conditional Aph1ABC triple KO mice ([29], [52], [58], [59]). At embryonic day 7.5, embryos were dissected and dissociated, and cells were plated in the presence of Dulbecco’s modified Eagle’s medium (DMEM)/F12 50% fetal calf serum (FCS) (Invitrogen). Primary MEFs were immortalized by transduction with LargeT antigen. Psen1/2 double KO/Aph1ABC triple KO MEFs were generated by transduction with a Cre-GFP–expressing adenoviral vector, and GFP-positive MEFs were sorted by fluorescence-activated cell sorting analysis. Psen1/2 Aph1ABC-deficient MEFs were maintained in DMEM/f12 10% FCS. To rescue γ-secretase expression, Psen1/2 double KO/Aph1ABC triple KO MEFs were transduced using Murine Stem Cell Virus retroviral vector system (pMSCV) viral vectors (Clontech) containing the human coding sequences of the different PSEN and APH1 homologs and the zeocin selection marker. An Internal Ribosome Entry Site sequence was cloned between the coding sequences for PSEN and APH1 to ensure co-expression of both proteins. Stable transfected cell lines were selected using 500-μg/ml zeocin (Invitrogen). Four different combinations were made: PSEN1 and APH1AL, PSEN1 and APH1B, PSEN2 and APH1AL, and PSEN2 and APH1B. These cell lines were transduced with pMSCV viral vectors (Clontech) expressing APP-C99-GFP-puromycin. After puromycin selection (5 μg/ml), GFP-positive cells were selected through FACS sorting. For the alanine mutagenesis experiment, pMSCV PSEN1-APH1A viral vectors were generated by using a long PCR-based QuikChange strategy (Stratagene). Stable cell lines without clonal selection were generated for each mutant as described above. All cell lines were regularly tested for the absence of mycoplasma and used for maximum 20 passages in culture.
as §2
Standard 96-well SECTOR plates (MSD) were coated with 1.5 μg/ml anti-Aβ JRFcAβ40/28 capture antibody in a final volume of 50 μl of PBS 0.05% Tween 20.

[3] = biological target: T2, PSEN1-APH1A γ-secretase complex (Homo sapiens, UniProt P49768); assay: Aβ40 secretion by MEF cell line expressing only PSEN1-APH1A γ-secretase (APP-C99-GFP reporter); format: cell-based; conditions: 8 h, Beerse site unless otherwise indicated, read-out: IC50, Aβ40 peptides
T2 construct: expressed in transfected cells; host or cells: Psen1/2 double KO/Aph1ABC triple KO MEFs, pMSCV retroviral PSEN-IRES-APH1
Source text: as §1, §3
The number of plated cells and incubation times were determined in respect to linearity of Aβ peptide secretion, the dynamic range of Aβ peptide quantification in the medium, and sensitivity to dimethylsulfoxide (DMSO). […] The cell viability was assessed using the CellTiter-Glo Luminescent assay (Promega) that measures ATP production. […]

SMILES | selectivity for PSEN1 complexes versus PSEN2 complexes [1] | IC50 [2] [nM] | other results
CC(C)[C@H](O)C(=O)N[C@@H](C)C(=O)N[C@@H]1C(=O)N(C)CCc2ccccc21 [semagacestat] | 6–13 fold | 24.9 | selectivity toward the different γ-secretase complexes ([1]; four MEF cell lines): < 10 fold
O=C(O)CC[C@H]1CC[C@@](c2cc(F)ccc2F)(S(=O)(=O)c2ccc(Cl)cc2)CC1 [MK-0752] |  | 1.6 | selectivity versus PSEN2–APH1A ([1]; MEF cell lines): 14 fold; selectivity versus PSEN2–APH1B ([1]; MEF cell lines): 70 fold; IC50 [3]: 5.3 nM
CC(C)(C(=O)NCC(F)(F)C(F)(F)F)C(=O)N[C@@H]1C(=O)Nc2ccccc2-c2ccccc21 [RO-4929097] |  |  | potency toward all four γ-secretase activities ([1]; four MEF cell lines, in words): low nanomolar potencies
O=S(=O)(N[C@H](CO)C(C(F)(F)F)C(F)(F)F)c1ccc(Cl)s1 [begacestat] |  | 17.9 | 
O=C1NCCCCC1N(Cc1ccc(Br)cc1)S(=O)(=O)c1ccc(Cl)cc1 (centres unmarked) [ELN-318463] | 70 fold | 24.5 | 
